Results taken from ChEMBL document CHEMBL1255450, “Detection of E119V and E119I mutations in influenza A (H3N2) viruses isolated from an immunocompromised patient: challenges in diagnosis of oseltamivir resistance” (Antimicrob Agents Chemother, 2010).

Experiments:
[1] = test system: Influenza A virus; test: Antiviral activity against Influenza A virus (A/Washington/01/2007 (H3N2)) measured in MDCK cells by fluorescent NA inhibition assay; type: functional, organism-based
[2] = test system: Influenza A virus; test: Antiviral activity against Influenza A virus (A/Washington/01/2007 (H3N2)) measured in MDCK cells by NA inhibition assay; type: functional, organism-based

Structure (SMILES) | IC50 [1] | IC50 [2]
C/C=C\[C@@H]1C[C@H](C(=O)O)N[C@H]1[C@@H](NC(C)=O)[C@](C)(CCC)OC | 1.22 nM | 0.74 nM
CCOC(=O)C1=C[C@@H](OC(CC)CC)[C@H](NC(C)=O)[C@@H](N)C1 [OSELTAMIVIR] | 0.44 nM | 0.16 nM
CCC(CC)[C@H](NC(C)=O)[C@@H]1[C@H](O)[C@@H](C(=O)O)C[C@H]1NC(=N)N [PERAMIVIR ANHYDROUS] | 0.5 nM | 0.28 nM
